Experimental data: US20020026053A1, “Novel 3-(substituted) -2- indolinones compounds and use thereof as inhibitors of protein kinase activity” (priority 1997, published 2002)

What was measured:
PDGF-R = PDGF-R Assay (cellular ELISA, U1242 cells); assay type: cell-based; parameters: concentration or dose not given beside the values; conditions: protocol P.119
Summary of the method: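 Cellular ELISA for receptor autophosphorylation: after 2 hr test-compound treatment of serum-free U1242 cells at 37°C, ligand is added for 5–10 min, cells are lysed (HNTG) and receptor captured by specific antibody. Anti-phosphotyrosine plus secondary antibody with ABTS colour read at 410/630 nm, compared with compound-free control cells.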

FLK-1 receptor = experiment: FLK-1 Assay (cellular/catalytic ELISA, VEGF-stimulated phosphotyrosine); assay type: cell-based; parameters: concentration or dose not given beside the values; conditions: protocol P.110
Summary of the method: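 Receptor phosphotyrosine ELISA: Flk-1-expressing NIH3T3 C7#3 cells, starved overnight in 0.1% FBS medium, received compound (1:200 final dilution, 0.5% DMSO) for 2 h at 37 °C, then VEGF. Anti-FLK-1-captured receptor was probed with anti-phosphotyrosine UB40 and peroxidase/ABTS read-out, relative to cells without compound.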

Compound | PDGF Kinase % Inhibition (P.119) (PDGF-R) [%] | Flk Kinase % Inhibition (P.110) (FLK-1 receptor) [%]
Cc1c(Br)cc(Br)c2c1C(=Cc1cccc(F)c1)C(=O)N2 [10736/H07] | −21.9 | 17.8
Cc1c(Br)cc(Br)c2c1C(=Cc1ccccc1F)C(=O)N2 [10736/H08] | −17.9 | 15.8
CCc1ccc(C=C2C(=O)Nc3c(Br)cc(Br)c(C)c32)cc1 [10736/H09] | −14.8 | 13.2
COc1cccc(C=C2C(=O)Nc3c(Br)cc(Br)c(C)c32)c1 [10736/H10] | −21.0 | 2.1
Cc1c(Br)cc(Br)c2c1C(=Cc1ccccc1Cl)C(=O)N2 [10736/H11] | −12.7 | 17.6
CCOc1ccc(C=C2C(=O)Nc3c(Br)cc(Br)cc32)cc1 [10737/A02] | 6.6 | −5.5
Cc1ccc(C=C2C(=O)Nc3c(Br)cc(Br)cc32)c(C)c1 [10737/A03] | 38.8 | −1.2
O=C1Nc2c(Br)cc(Br)cc2C1=Cc1cc(F)ccc1F [10737/A04] | 23.7 | −0.4
O=C1Nc2c(Br)cc(Br)cc2C1=Cc1cccc(F)c1F [10737/A05] | 21.7 | −2.0
COc1ccc(C=C2C(=O)Nc3c(Br)cc(Br)cc32)cc1F [10737/A06] | 15.7 | −20.3
Cc1ccc(C)c(C=C2C(=O)Nc3c(Br)cc(Br)cc32)c1 [10737/A07] | 7.0 | 3.4
O=C1Nc2c(Br)cc(Br)cc2C1=Cc1ccc2ccccc2c1 [10737/A08] | 1.0 | 4.9
O=C1Nc2c(Br)cc(Br)cc2C1=Cc1ccc(Oc2ccccc2)cc1 [10737/A09] | 18.9 | −10.1
CC(C)(C)c1ccc(Oc2cccc(C=C3C(=O)Nc4c(Br)cc(Br)cc43)c2)cc1 [10737/A10] | −3.8 | 6.0
O=C1Nc2c(Br)cc(Br)cc2C1=Cc1cccc(Oc2cccc(C(F)(F)F)c2)c1 [10737/A11] | 28.1 | 6.2
CCOc1ccc(C=C2C(=O)Nc3ccc(I)cc32)cc1 [10737/B02] | −28.9 | −3.0
Cc1ccc(C=C2C(=O)Nc3ccc(I)cc32)c(C)c1 [10737/B03] | 29.7 | 7.0
O=C1Nc2ccc(I)cc2C1=Cc1cc(F)ccc1F [10737/B04] | 12.5 | −8.2
O=C1Nc2ccc(I)cc2C1=Cc1cccc(F)c1F [10737/B05] | 19.7 | −4.6

Compound | PDGF Kinase % Inhibition (P.119) (PDGF-R) [%] | Flk Kinase % Inhibition (P.110) (FLK-1 receptor) [%]
COc1ccc(C=C2C(=O)Nc3ccc(I)cc32)cc1F [10737/B06] | 20.1 | 3.6
Cc1ccc(C)c(C=C2C(=O)Nc3ccc(I)cc32)c1 [10737/B07] | 18.9 | 10.5
O=C1Nc2ccc(I)cc2C1=Cc1ccc2ccccc2c1 [10737/B08] | −0.6 | 12.2
O=C1Nc2ccc(I)cc2C1=Cc1ccc(Oc2ccccc2)cc1 [10737/B09] | −14.1 | 17.5
CC(C)(C)c1ccc(Oc2cccc(C=C3C(=O)Nc4ccc(I)cc43)c2)cc1 [10737/B10] | −10.2 | 17.1
O=C1Nc2ccc(I)cc2C1=Cc1cccc(Oc2cccc(C(F)(F)F)c2)c1 [10737/B11] | −10.2 | 12.8
CCOc1ccc(C=C2C(=O)Nc3ccc(Br)c(C)c32)cc1 [10737/C02] | −2.2 | −2.9
Cc1ccc(C=C2C(=O)Nc3ccc(Br)c(C)c32)c(C)c1 [10737/C03] | 7.0 | 10.1
Cc1c(Br)ccc2c1C(=Cc1cc(F)ccc1F)C(=O)N2 [10737/C04] | 25.7 | −20.1
Cc1c(Br)ccc2c1C(=Cc1cccc(F)c1F)C(=O)N2 [10737/C05] | 12.5 | −3.3
COc1ccc(C=C2C(=O)Nc3ccc(Br)c(C)c32)cc1F [10737/C06] | 7.8 | 8.7
Cc1ccc(C)c(C=C2C(=O)Nc3ccc(Br)c(C)c32)c1 [10737/C07] | 8.6 | 1.6
Cc1c(Br)ccc2c1C(=Cc1ccc3ccccc3c1)C(=O)N2 [10737/C08] | 14.5 | 8.9
Cc1c(Br)ccc2c1C(=Cc1ccc(Oc3ccccc3)cc1)C(=O)N2 [10737/C09] | −1.8 | 8.4
Cc1c(Br)ccc2c1C(=Cc1cccc(Oc3ccc(C(C)(C)C)cc3)c1)C(=O)N2 [10737/C10] | 6.6 | 16.0
Cc1c(Br)ccc2c1C(=Cc1cccc(Oc3cccc(C(F)(F)F)c3)c1)C(=O)N2 [10737/C11] | 32.5 | 13.3
CCOc1ccc(C=C2C(=O)Nc3ccc(S(=O)(=O)NC)cc32)cc1 [10737/D02] | −4.2 | 10.6
CNS(=O)(=O)c1ccc2c(c1)C(=Cc1ccc(C)cc1C)C(=O)N2 [10737/D03] | −5.8 | 12.1
CNS(=O)(=O)c1ccc2c(c1)C(=Cc1cc(F)ccc1F)C(=O)N2 [10737/D04] | 9.4 | 12.0

Compound | PDGF Kinase % Inhibition (P.119) (PDGF-R) [%] | Flk Kinase % Inhibition (P.110) (FLK-1 receptor) [%]
CNS(=O)(=O)c1ccc2c(c1)C(=Cc1cccc(F)c1F)C(=O)N2 [10737/D05] | 2.2 | 8.9
CNS(=O)(=O)c1ccc2c(c1)C(=Cc1ccc(OC)c(F)c1)C(=O)N2 [10737/D06] | −10.2 | 13.0
CNS(=O)(=O)c1ccc2c(c1)C(=Cc1cc(C)ccc1C)C(=O)N2 [10737/D07] | −5.0 | 12.9
CNS(=O)(=O)c1ccc2c(c1)C(=Cc1ccc3ccccc3c1)C(=O)N2 [10737/D08] | 3.0 | 15.3
CNS(=O)(=O)c1ccc2c(c1)C(=Cc1ccc(Oc3ccccc3)cc1)C(=O)N2 [10737/D09] | 1.0 | 13.9
CNS(=O)(=O)c1ccc2c(c1)C(=Cc1cccc(Oc3ccc(C(C)(C)C)cc3)c1)C(=O)N2 [10737/D10] | 7.0 | 23.2
CNS(=O)(=O)c1ccc2c(c1)C(=Cc1cccc(Oc3cccc(C(F)(F)F)c3)c1)C(=O)N2 [10737/D11] | 5.4 | 17.2
CCOc1ccc(C=C2C(=O)Nc3ccc(S(=O)(=O)Nc4ccc(C(F)(F)F)cc4)cc32)cc1 [10737/E02] | 12.9 | 14.3
Cc1ccc(C=C2C(=O)Nc3ccc(S(=O)(=O)Nc4ccc(C(F)(F)F)cc4)cc32)c(C)c1 [10737/E03] | 39.2 | 17.9
O=C1Nc2ccc(S(=O)(=O)Nc3ccc(C(F)(F)F)cc3)cc2C1=Cc1cc(F)ccc1F [10737/E04] | 29.7 | 16.1
O=C1Nc2ccc(S(=O)(=O)Nc3ccc(C(F)(F)F)cc3)cc2C1=Cc1cccc(F)c1F [10737/E05] | 33.3 | 14.9
COc1ccc(C=C2C(=O)Nc3ccc(S(=O)(=O)Nc4ccc(C(F)(F)F)cc4)cc32)cc1F [10737/E06] | 26.5 | 11.1
Cc1ccc(C)c(C=C2C(=O)Nc3ccc(S(=O)(=O)Nc4ccc(C(F)(F)F)cc4)cc32)c1 [10737/E07] | 28.1 | 20.1
O=C1Nc2ccc(S(=O)(=O)Nc3ccc(C(F)(F)F)cc3)cc2C1=Cc1ccc2ccccc2c1 [10737/E08] | 35.6 | 21.3
O=C1Nc2ccc(S(=O)(=O)Nc3ccc(C(F)(F)F)cc3)cc2C1=Cc1ccc(Oc2ccccc2)cc1 [10737/E09] | 25.7 | 11.9
CC(C)(C)c1ccc(Oc2cccc(C=C3C(=O)Nc4ccc(S(=O)(=O)Nc5ccc(C(F)(F)F)cc5)cc43)c2)cc1 [10737/E10] | 30.9 | 18.9
O=C1Nc2ccc(S(=O)(=O)Nc3ccc(C(F)(F)F)cc3)cc2C1=Cc1cccc(Oc2cccc(C(F)(F)F)c2)c1 [10737/E11] | 38.0 | 18.3
CCOc1ccc(C=C2C(=O)Nc3ccc(S(=O)(=O)N4CCOCC4)cc32)cc1 [10737/F02] | 9.0 | 15.1
Cc1ccc(C=C2C(=O)Nc3ccc(S(=O)(=O)N4CCOCC4)cc32)c(C)c1 [10737/F03] | 7.8 | 16.3
